# In patent US20260116920A1, “HUMAN TRANSFERRIN RECEPTOR BINDING PEPTIDE” (PEPTIDREAM INC., priority 2021, published 2026):
# Starred links: 1 amine or outer side, 2 acyl side, 3 side chain; linkers in the order of their positions; H or OH if unused. Positions of bridges follow the written chain, without caps; N, C: chain ends. Non-standard residues stand in square brackets, D forms with d. Residues, ends and D or L forms follow the SMILES beside them. *: point of attachment. X3 = CN([C@@H](Cc1cccc(C(=O)[*:3])c1)C(=O)[*:2])[*:1]; NMePhe(4-COOH) = CN[C@@H](Cc1ccc(C(=O)O)cc1)C(=O)O; X1 = O=C([C@H](Cc1cccc(C(=O)[*:3])c1)N[*:1])[*:2]; Nle(6-morpholino) = N[C@@H](CCCCN1CCOCC1)C(=O)O; Phe(3-COOH) = N[C@@H](Cc1cccc(C(=O)O)c1)C(=O)O; Trp(7-aza) = N[C@@H](Cc1c[nH]c2ncccc12)C(=O)O; NMePhe(3-Cl) = CN[C@@H](Cc1cccc(Cl)c1)C(=O)O; NMeY = CN[C@@H](Cc1ccc(O)cc1)C(=O)O; NH(CH2CH2O)4Me = COCCOCCOCCOCCN*; PEG4 = NCCOCCOCCOCCOCCC(=O)O; Carboxymethyl = O=C(O)C*
# Target: T1, human transferrin receptor (hTfR) (Homo sapiens, UniProt P02786)
# T1 construct: made in house
# T1 sequence (P02786 89-760 limits assumed): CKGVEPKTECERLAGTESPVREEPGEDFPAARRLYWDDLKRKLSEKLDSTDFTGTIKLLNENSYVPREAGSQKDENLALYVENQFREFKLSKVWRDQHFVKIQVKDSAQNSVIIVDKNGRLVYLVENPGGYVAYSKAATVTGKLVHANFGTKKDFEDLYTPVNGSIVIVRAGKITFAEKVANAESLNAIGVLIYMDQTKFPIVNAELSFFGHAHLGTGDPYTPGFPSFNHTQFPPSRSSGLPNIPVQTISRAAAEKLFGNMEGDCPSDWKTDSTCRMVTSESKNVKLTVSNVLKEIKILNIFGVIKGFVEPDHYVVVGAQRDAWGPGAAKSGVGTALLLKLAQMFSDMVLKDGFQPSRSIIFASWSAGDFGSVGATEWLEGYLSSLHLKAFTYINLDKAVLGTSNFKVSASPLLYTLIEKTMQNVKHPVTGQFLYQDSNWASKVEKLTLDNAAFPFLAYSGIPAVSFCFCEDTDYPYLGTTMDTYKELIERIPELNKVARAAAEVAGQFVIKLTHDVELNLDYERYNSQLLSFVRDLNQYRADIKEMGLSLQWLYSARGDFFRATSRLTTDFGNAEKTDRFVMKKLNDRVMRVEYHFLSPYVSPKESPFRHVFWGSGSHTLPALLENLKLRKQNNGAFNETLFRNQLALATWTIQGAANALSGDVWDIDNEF
# Assay: Evaluation of molecular interaction between transferrin receptor (hTfR) and peptide using surface plasmon resonance (SPR)
# Format: binding
# Details: surface plasmon resonance, binding to hTfR; KD class symbol; read-out: SPR (KD value)
# Method in brief: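 Using a Ni-NTA surface bearing covalently coupled hTfR dimer, peptides were tested at five concentrations from 5 to 100 nM. Running buffer was 10 mM HEPES pH 8.0, 150 mM NaCl, 0.05% Tween 20, 0.1% BSA, 1.0% DMSO; single-cycle sensorgrams were least-squares fitted for KD.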
row,SMILES,Kd [nM]
1,CC[C@H](C)[C@@H]1NC(=O)[C@H](Cc2ccc(OCC(=O)O)cc2)NC(=O)[C@H](Cc2ccc(O)cc2)NC(=O)[C@H](CC(N)=O)NC(=O)[C@H](Cc2c[nH]c3ccccc23)NC(=O)[C@H](C(C)C)NC(=O)[C@H](Cc2cccc(Cl)c2)N(C)C(=O)[C@H](C(C)C)NC(=O)[C@H](C)NC(=O)CSC[C@@H](C(=O)NCCOCCOCCOCCOCCC(N)=O)NC(=O)[C@H](Cc2ccc(C(=O)NCCOCCOCCOCCOC)cc2)N(C)C(=O)[C@H](Cc2cccc(C(=O)NCCOCCOCCOCCOC)c2)NC(=O)[C@H](CCCNC(=N)N)NC(=O)[C@H](CCC(N)=O)NC(=O)[C@H]([C@@H](C)CC)NC1=O [compound 127] ({CH2CO}-AV[NMePhe(3-Cl)]VWNYY(Carboxymethyl)IIQR[X1](NH(CH2CH2O)4Me)[NMePhe(4-COOH)](NH(CH2CH2O)4Me)C[PEG4]-NH2; thioether N-15),1 to 100
2,CC[C@H](C)[C@@H]1NC(=O)[C@H](Cc2ccc(OCC(=O)O)cc2)NC(=O)[C@H](Cc2ccc(O)cc2)NC(=O)[C@H](CC(N)=O)NC(=O)[C@H](Cc2c[nH]c3ccccc23)NC(=O)[C@H](C(C)C)NC(=O)[C@H](Cc2cccc(Cl)c2)N(C)C(=O)[C@H](C(C)C)NC(=O)[C@H](C)NC(=O)CSC[C@@H](C(=O)NCC(=O)N[C@H](CO)C(=O)N[C@H](CO)C(=O)N[C@H](CO)C(=O)N[C@H](CO)C(=O)N[C@H](CO)C(N)=O)NC(=O)[C@H](Cc2cccc(C(=O)NCCOCCOCCOCCOC)c2)N(C)C(=O)[C@H](Cc2cccc(C(=O)NCCOCCOCCOCCOC)c2)NC(=O)[C@H](CCCNC(=N)N)NC(=O)[C@H](CCC(N)=O)NC(=O)[C@H]([C@@H](C)CC)NC1=O [compound 129],1 to 100
3,CC[C@H](C)[C@@H]1NC(=O)[C@H](Cc2ccc(OCC(=O)O)cc2)NC(=O)[C@H](Cc2ccc(O)cc2)NC(=O)[C@H](CC(N)=O)NC(=O)[C@H](Cc2c[nH]c3ncccc23)NC(=O)[C@H](C(C)C)NC(=O)[C@H](Cc2cccc(Cl)c2)N(C)C(=O)[C@H](C(C)C)NC(=O)[C@H](C)NC(=O)CSC[C@@H](C(=O)NCCOCCOCCOCCOCCC(N)=O)NC(=O)[C@H](Cc2ccc(O)cc2)N(C)C(=O)[C@H](Cc2ccccc2)NC(=O)[C@H](CCCNC(=N)N)NC(=O)[C@H](CCC(=O)NCCOCCOCCOCCOC)NC(=O)[C@H]([C@@H](C)CC)NC1=O [compound 133],1 to 100
4,CC[C@H](C)[C@@H]1NC(=O)[C@H](Cc2ccc(OCC(=O)O)cc2)NC(=O)[C@H](Cc2ccc(O)cc2)NC(=O)[C@H](CC(N)=O)NC(=O)[C@H](Cc2cn(CC(=O)O)c3ccccc23)NC(=O)[C@H](C(C)C)NC(=O)[C@H](Cc2cccc(Cl)c2)N(C)C(=O)[C@H](C(C)C)NC(=O)[C@H](C)NC(=O)CSC[C@@H](C(=O)NCCOCCOCCOCCOCCC(N)=O)NC(=O)[C@H](Cc2ccc(O)cc2)N(C)C(=O)[C@H](Cc2ccncc2)NC(=O)[C@H](CCCNC(=N)N)NC(=O)[C@H](CCC(N)=O)NC(=O)[C@H]([C@@H](C)CC)NC1=O [compound 134],1 to 100
5,CC[C@H](C)[C@@H]1NC(=O)[C@H](Cc2ccc(OCC(=O)O)cc2)NC(=O)[C@H](Cc2ccc(O)cc2)NC(=O)[C@H](CC(N)=O)NC(=O)[C@H](Cc2cn(CC(=O)O)c3ccccc23)NC(=O)[C@H](C(C)C)NC(=O)[C@H](Cc2cccc(Cl)c2)N(C)C(=O)[C@H](C(C)C)NC(=O)[C@H](C)NC(=O)CSC[C@@H](C(=O)NCCOCCOCCOCCOCCC(N)=O)NC(=O)[C@H](Cc2ccc(O)cc2)N(C)C(=O)[C@H](Cc2ccncc2)NC(=O)[C@H](CCCCN2CCOCC2)NC(=O)[C@H](CCC(N)=O)NC(=O)[C@H]([C@@H](C)CC)NC1=O [compound 135],1 to 100
6,CC[C@H](C)[C@@H]1NC(=O)[C@H](Cc2ccc(OCC(=O)O)cc2)NC(=O)[C@H](Cc2ccc(O)cc2)NC(=O)[C@H](CC(N)=O)NC(=O)[C@H](Cc2cn(CC(=O)O)c3ccccc23)NC(=O)[C@H](C(C)C)NC(=O)[C@H](Cc2cccc(Cl)c2)N(C)C(=O)[C@H](C(C)C)NC(=O)[C@H](C)NC(=O)CSC[C@@H](C(=O)NCCOCCOCCOCCOCCC(N)=O)NC(=O)[C@H](Cc2ccc(O)cc2)N(C)C(=O)[C@H](Cc2cccc(C(=O)O)c2)NC(=O)[C@H](CCCNC(=N)N)NC(=O)[C@H](CCC(N)=O)NC(=O)[C@H]([C@@H](C)CC)NC1=O [compound 136],1 to 100
7,CC[C@H](C)[C@@H]1NC(=O)[C@H](Cc2ccc(OCC(=O)O)cc2)NC(=O)[C@H](Cc2ccc(O)cc2)NC(=O)[C@H](CC(N)=O)NC(=O)[C@H](Cc2c[nH]c3ncccc23)NC(=O)[C@H](C(C)C)NC(=O)[C@H](Cc2cccc(Cl)c2)N(C)C(=O)[C@H](C(C)C)NC(=O)[C@H](C)NC(=O)CSC[C@@H](C(=O)NCCOCCOCCOCCOCCC(N)=O)NC(=O)[C@H](Cc2ccc(O)cc2)N(C)C(=O)[C@H](Cc2ccncc2)NC(=O)[C@H](CCCNC(=N)N)NC(=O)[C@H](CCC(N)=O)NC(=O)[C@H]([C@@H](C)CC)NC1=O [compound 137],1 to 100
8,CC[C@H](C)[C@@H]1NC(=O)[C@H](Cc2ccc(OCC(=O)O)cc2)NC(=O)[C@H](Cc2ccc(O)cc2)NC(=O)[C@H](CC(N)=O)NC(=O)[C@H](Cc2c[nH]c3ncccc23)NC(=O)[C@H](C(C)C)NC(=O)[C@H](Cc2cccc(Cl)c2)N(C)C(=O)[C@H](C(C)C)NC(=O)[C@H](C)NC(=O)CSC[C@@H](C(=O)NCCOCCOCCOCCOCCC(N)=O)NC(=O)[C@H](Cc2ccc(O)cc2)N(C)C(=O)[C@H](Cc2ccncc2)NC(=O)[C@H](CCCCN2CCOCC2)NC(=O)[C@H](CCC(N)=O)NC(=O)[C@H]([C@@H](C)CC)NC1=O [compound 138],1 to 100
9,CC[C@H](C)[C@@H]1NC(=O)[C@H](Cc2ccc(OCC(=O)O)cc2)NC(=O)[C@H](Cc2ccc(O)cc2)NC(=O)[C@H](CC(N)=O)NC(=O)[C@H](Cc2c[nH]c3ncccc23)NC(=O)[C@H](C(C)C)NC(=O)[C@H](Cc2cccc(Cl)c2)N(C)C(=O)[C@H](C(C)C)NC(=O)[C@H](C)NC(=O)CSC[C@@H](C(=O)NCCOCCOCCOCCOCCC(N)=O)NC(=O)[C@H](Cc2ccc(O)cc2)N(C)C(=O)[C@H](Cc2ccncc2)NC(=O)[C@H](CCCCN2CCOCC2)NC(=O)[C@H](CCC(=O)NCCOCCOCCOCCOCCOCCOCCOCCOC)NC(=O)[C@H]([C@@H](C)CC)NC1=O [compound 139],1 to 100
10,CC[C@H](C)[C@@H]1NC(=O)[C@H](Cc2ccc(OCC(=O)O)cc2)NC(=O)[C@H](Cc2ccc(O)cc2)NC(=O)[C@H](CC(N)=O)NC(=O)[C@H](Cc2c[nH]c3ncccc23)NC(=O)[C@H](C(C)C)NC(=O)[C@H](Cc2cccc(Cl)c2)N(C)C(=O)[C@H](C(C)C)NC(=O)[C@H](C)NC(=O)CSC[C@@H](C(=O)NCCOCCOCCOCCOCCC(N)=O)NC(=O)[C@H](Cc2ccc(O)cc2)N(C)C(=O)[C@H](Cc2cccc(C(=O)O)c2)NC(=O)[C@H](CCCCN2CCOCC2)NC(=O)[C@H](CCC(N)=O)NC(=O)[C@H]([C@@H](C)CC)NC1=O [compound 140] ({CH2CO}-AV[NMePhe(3-Cl)]V[Trp(7-aza)]NYY(Carboxymethyl)IIQ[Nle(6-morpholino)][Phe(3-COOH)][NMeY]C[PEG4]-NH2; thioether N-15),1 to 100

# The next lines start with the values.
row,Kd [nM],SMILES
1,1 to 100,CC[C@H](C)[C@@H]1NC(=O)[C@H](Cc2ccc(OCC(=O)O)cc2)NC(=O)[C@H](Cc2ccc(O)cc2)NC(=O)[C@H](CC(N)=O)NC(=O)[C@H](Cc2c[nH]c3ccccc23)NC(=O)[C@H](C(C)C)NC(=O)[C@H](Cc2cccc(Cl)c2)N(C)C(=O)[C@H](C(C)C)NC(=O)[C@H](C)NC(=O)CSC[C@@H](C(=O)NCCOCCOCCOCCOCCC(N)=O)NC(=O)[C@H](Cc2cccc(C(=O)NCCOCCOCCOCCOC)c2)N(C)C(=O)[C@H](Cc2cccc(C(=O)NCCOCCOCCOCCOC)c2)NC(=O)[C@H](CCCNC(=N)N)NC(=O)[C@H](CCC(N)=O)NC(=O)[C@H]([C@@H](C)CC)NC1=O [compound 128] ({CH2CO}-AV[NMePhe(3-Cl)]VWNYY(Carboxymethyl)IIQR[X1](NH(CH2CH2O)4Me)[X3](NH(CH2CH2O)4Me)C[PEG4]-NH2; thioether N-15)
2,1 to 100,CC[C@H](C)[C@@H]1NC(=O)[C@H](Cc2ccc(OCC(=O)O)cc2)NC(=O)[C@H](Cc2ccc(O)cc2)NC(=O)[C@H](CC(N)=O)NC(=O)[C@H](Cc2c[nH]c3ncccc23)NC(=O)[C@H](C(C)C)NC(=O)[C@H](Cc2cccc(Cl)c2)N(C)C(=O)[C@H](C(C)C)NC(=O)[C@H](C)NC(=O)CSC[C@@H](C(=O)NCCOCCOCCOCCOCCC(N)=O)NC(=O)[C@H](Cc2ccc(O)cc2)N(C)C(=O)[C@H](Cc2cccc(C(=O)NCCOCCOCCOCCOC)c2)NC(=O)[C@H](CCCNC(=N)N)NC(=O)[C@H](CCC(=O)NCCOCCOCCOCCOC)NC(=O)[C@H]([C@@H](C)CC)NC1=O [compound 130]
3,1 to 100,CC[C@H](C)[C@@H]1NC(=O)[C@H](Cc2ccc(OCC(=O)O)cc2)NC(=O)[C@H](Cc2ccc(O)cc2)NC(=O)[C@H](CC(N)=O)NC(=O)[C@H](Cc2c[nH]c3ncccc23)NC(=O)[C@H](C(C)C)NC(=O)[C@H](Cc2cccc(Cl)c2)N(C)C(=O)[C@H](C(C)C)NC(=O)[C@H](C)NC(=O)CSC[C@@H](C(=O)NCCOCCOCCOCCOCCC(N)=O)NC(=O)[C@H](Cc2ccc(C(=O)NCCOCCOCCOCCOC)cc2)N(C)C(=O)[C@H](Cc2cccc(C(=O)NCCOCCOCCOCCOC)c2)NC(=O)[C@H](CCCNC(=N)N)NC(=O)[C@H](CCC(N)=O)NC(=O)[C@H]([C@@H](C)CC)NC1=O [compound 131]
4,1 to 100,CC[C@H](C)[C@@H]1NC(=O)[C@H](Cc2ccc(OCC(=O)O)cc2)NC(=O)[C@H](Cc2ccc(O)cc2)NC(=O)[C@H](CC(N)=O)NC(=O)[C@H](Cc2c[nH]c3ncccc23)NC(=O)[C@H](C(C)C)NC(=O)[C@H](Cc2cccc(Cl)c2)N(C)C(=O)[C@H](C(C)C)NC(=O)[C@H](C)NC(=O)CSC[C@@H](C(=O)NCCOCCOCCOCCOCCC(N)=O)NC(=O)[C@H](Cc2cccc(C(=O)NCCOCCOCCOCCOC)c2)N(C)C(=O)[C@H](Cc2cccc(C(=O)NCCOCCOCCOCCOC)c2)NC(=O)[C@H](CCCNC(=N)N)NC(=O)[C@H](CCC(N)=O)NC(=O)[C@H]([C@@H](C)CC)NC1=O [compound 132]
